According to US10912769B2, “1-[(pyridin-3-yl-sulfonyl)-1H-pyrrol-3-yl] methanamine derivative and pharmaceutical composition and use thereof” (Jiangsu Jibeier Pharmaceutical Co. Ltd., priority 2016, dated 2021):
Counter-ions that a name gives are not always drawn. Like-named read-outs stand apart in the source and are kept apart here. Marks after values point to notes of the source that are not given here.

Columns and labels:
[1] = test system: basal gastric acid secretion in rats; assay: Inhibitory test of basal gastric acid secretion in pylorus-ligated rats after intragastric administration; format: in vivo, SD rats; settings: for Inhibitory rate (basal gastric acid secretion) / Amount of gastric juice / Total acid amount of the gastric juice: n = 10; for Amount of gastric juice: pylorus ligation 1 h after administration, gastric juice collected after 4 h; for Amount of gastric juice / Total acid amount of the gastric juice: X ± S; for Total acid amount of the gastric juice: titration with 0.01 mol/L NaOH; for Effect on the total acid amount of the gastric juice as compared with the model control group: I-1a 2 mg/kg and 1 mg/kg, vonoprazan fumarate 2 mg/kg, P<0.05 or P<0.01
Excerpt: An equal amount of deuterated vonoprazan fumarate derivatives I-1a, I-2a, I-3a and I-4a prepared and obtained in the Examples and vonoprazan fumarate (vonoprazan was 1-[5-(2-fluorophenyl)-1-(pyridin-3-yl-sulfonyl)-1H-pyrrol-3-yl]-N-methylmethanamine) were taken respectively and subjected to the inhibitory activity test on gastric acid secretion in rats.
SD rats which were SPF grade and weighed 180 to 200 g were selected and used in this experiment. The rats were grouped randomly with 10 rats in each group (half male and half female). Animals were fasted but free to access water for 16 hours. 1 hour after administration, the animals were anesthetized with isoflurane and fixed in a supine position. The abdomen was shaved and disinfected routinely. A 1.5 cm incision was made along the midline and below the xiphoid, the stomach was taken gently, the gastric pylorus was ligated with surgical suture at the junction of the stomach pylorus and the duodenum, and the incision was sutured. The animals were fasted and water-deprived after the surgery. After 4 hours, the animals were anesthetized by intra-abdominally injecting 1% sodium pentobarbital. The incision was opened, and the gastric cardia was ligated. The stomach was taken out and cut open along the greater curvature of stomach. The gastric juice was collected and centrifuged at 3000 rpm for 10 minutes. The supernatant was aspirated and the volume of the gastric juice was measured. 0.5 mL of the gastric juice was taken and placed in a small conical flask, a drop of phenolphthalein indicator was added, and the mixture was titrated with 0.01 mol/L sodium hydroxide until the red color appeared (the color was no longer deepened) as the endpoint. The total amount of gastric acid was calculated according to the following formula. The average secretion amount of the gastric juice and the total acid amount of the gastric juice of each administered group and the model control group were subjected to statistical tests.
The inhibitory test of basal gastric acid secretion in rats was carried out after intragastric administration of the vonoprazan fumarate derivatives and vonoprazan fumarate, and the results were as shown in Table 1 and FIG. 1. […] The inhibitory effects of the vonoprazan fumarate derivative (Compound I-1a) with a dosage of 2 mg/kg on the secretion amount of gastric juice and the total acid amount of the gastric juice in rats were stronger than that of the same dosage (2 mg/kg) of vonoprazan fumarate, and there was a significant difference between the two (P<0.05). As compared with vonoprazan fumarate, the vonoprazan fumarate derivatives had stronger inhibitory effect on the gastric acid secretion in rats at the same dosage.

[2] = Pharmacokinetic experiment in rats after single intragastric administration (plasma LC-MS/MS); format: in vivo; settings: both sexes, SD, rat, po, 2 mg/kg intragastric; for AUC(0-inf) / Cmax / Tmax / half-life: n = 6; for bioavailability: n = 6, read-out: F (absolute bioavailability); for AUC(0-t): 2 mg/kg
Description: An equal amount of Compound I-1a (1-[5-(2-fluorophenyl)-1-(pyridin-3-yl-sulfonyl)-1H-pyrrol-3-yl]-N-methyldideuteromethanamine fumarate) prepared and obtained in the Example and vonoprazan fumarate were taken respectively and subjected to a pharmacokinetic experiment.
Drug formulating manner: 16 mg of the drug (the vonoprazan fumarate derivatives or vonoprazan fumarate) was weighed and taken, and dissolved in 2 mL of N-methylpyrrolidone. 38 mL of 5% glucose injection was further added thereto to prepare a dosing solution with a concentration of 0.4 mg/mL and the dosing solution was administered by intragastric administration.
Intragastric administration: 6 SD rats (half male and half female) were taken and orally administered as a single dose (2 mg/kg). Blood samples was collected after administration, and the time points of blood collection were 0.083 hours, 0.25 hours, 0.5 hours, 1 hour, 2 hours, 3 hours, 4 hours, 6 hours, 8 hours, 12 hours, 24 hours, 36 hours, and 48 hours after the administration.
Sample collection: 200 μL of whole blood was taken at each time point of blood collection, heparin was added for anticoagulation, and the mixture was centrifuged at 12000 rpm for 5 min at 4° C. 50 μL of the plasma was taken and placed in a polypropylene tube, and the rest was used for backup and stored at −20° C. to be tested.
Plasma treatment method: To 50 μL of rat plasma anticoagulated by heparin, 50 μL of methanol and […], of a solution of the internal standard etofesalamide in methanol (10 ng/mL) were added. The mixture was vortexed for 1 min and centrifuged at 12000 rpm for 10 min at 4° C. 100 μL of the supernatant was taken and placed in a vial insert, and 1 μL of the supernatant was injected for LC-MS/MS analysis.
The pharmacokinetic parameters were calculated by non-compartment model statistical moment method using WinNonlin 6.3 software.

[3] = mean, n = 6, read-out: AUC0-6 h

| Compound | Inhibitory rate (basal gastric acid secretion) ([1]; 1 mg/kg intragastric) | Amount of gastric juice ([1]; 1 mg/kg intragastric) | Total acid amount of the gastric juice ([1]; 1 mg/kg intragastric) | Inhibitory rate (basal gastric acid secretion) ([1]; 2 mg/kg intragastric) | Amount of gastric juice ([1]; 2 mg/kg intragastric) | Total acid amount of the gastric juice ([1]; 2 mg/kg intragastric) | Effect on the total acid amount of the gastric juice as compared with the model control group [1] | AUC(0-inf) ([2]; mean) | Cmax ([2]; mean) | Tmax ([2]; mean) | half-life ([2]; mean) | bioavailability [2] | AUC(0-t) [2, 3] | AUC(0-t) ([2]; read-out: AUC0-t in the plasma) | also measured |
| --- | --- | --- | --- | --- | --- | --- | --- | --- | --- | --- | --- | --- | --- | --- | --- |
| O=C(O)/C=C/C(=O)O.[2H]C([2H])(NC)c1cc(-c2ccccc2F)n(S(=O)(=O)c2cccnc2)c1 [Compound I-1a, 1-[5-(2-fluorophenyl)-1-(pyridin-3-yl-sulfonyl)-1H-pyrrol-3-yl]-N-methyldideuteromethanamine fumarate] | 52.7% | 2.6 ± 0.8 mL | 153.3 ± 85.9 µmol | 95.3% | 1.8 ± 0.9**^Δ mL | 15.3 ± 12.9***^Δ μmol | significant inhibitory effect | – | – | – | – | – | – | – | Effect on the secretion amount of gastric juice as compared with the model control group ([1]; 2 mg/kg, P<0.01): significant inhibitory effect; Inhibitory effects on secretion amount and total acid amount of gastric juice compared with same dosage of vonoprazan fumarate ([1]; 2 mg/kg, P<0.05): stronger |
| O=C(O)/C=C/C(=O)O.[2H]C([2H])([2H])NC([2H])([2H])c1cc(-c2ccccc2F)n(S(=O)(=O)c2cccnc2)c1 [Compound I-2a, 1-[5-(2-fluorophenyl)-1-(pyridin-3-yl-sulfonyl)-1H-pyrrol-3-yl]-N-trideuteromethyldideuteromethanamine fumarate] | – | – | – | 95.5% | – | – | – | – | – | – | – | – | – | – | – |
| O=C(O)/C=C/C(=O)O.[2H]c1nc([2H])c(S(=O)(=O)n2cc(C([2H])([2H])NC([2H])([2H])[2H])cc2-c2ccccc2F)c([2H])c1[2H] [Compound I-4a, 1-[5-(2-fluorophenyl)-1-(tetradeuteropyridin-3-yl-sulfonyl)-1H-pyrrol-3-yl]-N-trideuteromethyldideuteromethanamine fumarate] | – | – | – | 97.4% | – | – | – | – | – | – | – | – | – | – | – |
| CNCc1cc(-c2ccccc2F)n(S(=O)(=O)c2cccnc2)c1 [TAK-438, 1-[5-(2-fluorophenyl)-1-(pyridin-3-yl-sulfonyl)-1H-pyrrol-3-yl]-N-methylmethanamine, reference compound] | – | – | – | – | – | – | – | 45 ng·h/mL | 67.3 ng/mL | 15 min | 47.8 min | 33.5% | 44.6 ng·h/mL | 45 ng·h/mL | – |
| [2H]C([2H])(NC)c1cc(-c2ccccc2F)n(S(=O)(=O)c2cccnc2)c1 [TAK-438d2, 1-[5-(2-fluorophenyl)-1-(pyridin-3-yl-sulfonyl)-1H-pyrrol-3-yl]-N-methyldideuteromethanamine] | – | – | – | – | – | – | – | 56.4 ng·h/mL | 74.9 ng/mL | 15 min | 57.7 min | 42.9% | 56.2 ng·h/mL | 56.4 ng·h/mL | – |
| CNCc1cc(-c2ccccc2F)n(S(=O)(=O)c2cccnc2)c1 [vonoprazan fumarate, reference compound] | 43.1% | 3.1 ± 1.2 mL | 184.2 ± 83.4 µmol | 73.8% | 3.0 ± 1.3 mL | 84.9 ± 83.2 µmol | significant inhibitory effect | – | – | – | – | – | – | – | – |
